Where “and” joins values, the source holds several entries; their conditions need not be identical. Identical values can stand only once. Like-named read-outs stand apart in the source and are kept apart here.
Key:
human Brd4 BD2 = target: T1, human Brd4 BD2 (Homo sapiens, UniProt O60885); experiment: HTRF assay, inhibition of H4ac4 peptide binding; conditions: Brd4 BD2
T1 construct: GST‐tagged BD2 (residues 349–460) from human Brd4 (UniProt ID O60885); purchased Reaction Biology Corp

C. auris Bdf1 BD2 = C. auris Bdf1 BD2 (Candidozyma auris (Candida auris), UniProt A0AAW0VEM6); experiment: HTRF assay, inhibition of H4ac4 peptide binding
Chain of C. auris Bdf1 BD2 (A0AAW0VEM6 entry or part of it): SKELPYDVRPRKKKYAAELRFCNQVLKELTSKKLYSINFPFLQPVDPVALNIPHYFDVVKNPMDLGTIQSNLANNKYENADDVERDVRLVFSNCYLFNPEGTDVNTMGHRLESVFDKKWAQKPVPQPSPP

human Brd4 BD1 = human Brd4 BD1 (Homo sapiens, UniProt O60885); experiment: HTRF assay, inhibition of H4ac4 peptide binding; conditions: Brd4 BD1
Bdf1/Swc4 = target: T2, Bdf1/Swc4 (Saccharomyces cerevisiae, UniProt P35817); experiment: NanoBiT assay, control pair; type: cell-based, S. cerevisiae; parameters: remaining activity: dose or concentration left out as unconfirmed
T2 construct: expressed in transfected cells; host or cells: S. cerevisiae
T2 sequence (P35817 whole entry): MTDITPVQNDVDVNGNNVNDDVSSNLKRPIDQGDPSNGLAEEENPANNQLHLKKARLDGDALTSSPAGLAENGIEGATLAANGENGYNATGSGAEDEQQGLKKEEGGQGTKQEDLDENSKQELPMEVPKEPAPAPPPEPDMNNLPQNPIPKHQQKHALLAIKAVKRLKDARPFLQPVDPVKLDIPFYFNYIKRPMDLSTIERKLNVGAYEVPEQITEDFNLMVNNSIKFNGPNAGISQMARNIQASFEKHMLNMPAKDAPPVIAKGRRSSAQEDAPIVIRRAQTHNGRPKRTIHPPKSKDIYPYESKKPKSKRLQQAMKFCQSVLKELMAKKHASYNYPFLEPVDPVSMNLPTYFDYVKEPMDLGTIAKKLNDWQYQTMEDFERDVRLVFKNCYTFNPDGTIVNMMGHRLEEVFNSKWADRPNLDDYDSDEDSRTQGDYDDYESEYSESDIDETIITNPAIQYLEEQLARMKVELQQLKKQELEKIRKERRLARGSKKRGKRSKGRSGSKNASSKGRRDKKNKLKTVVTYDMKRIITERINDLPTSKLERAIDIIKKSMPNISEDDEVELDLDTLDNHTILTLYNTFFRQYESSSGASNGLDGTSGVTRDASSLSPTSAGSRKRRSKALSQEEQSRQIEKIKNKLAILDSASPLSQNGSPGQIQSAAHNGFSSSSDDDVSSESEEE
T2 sequence (P53201 whole entry, further chain): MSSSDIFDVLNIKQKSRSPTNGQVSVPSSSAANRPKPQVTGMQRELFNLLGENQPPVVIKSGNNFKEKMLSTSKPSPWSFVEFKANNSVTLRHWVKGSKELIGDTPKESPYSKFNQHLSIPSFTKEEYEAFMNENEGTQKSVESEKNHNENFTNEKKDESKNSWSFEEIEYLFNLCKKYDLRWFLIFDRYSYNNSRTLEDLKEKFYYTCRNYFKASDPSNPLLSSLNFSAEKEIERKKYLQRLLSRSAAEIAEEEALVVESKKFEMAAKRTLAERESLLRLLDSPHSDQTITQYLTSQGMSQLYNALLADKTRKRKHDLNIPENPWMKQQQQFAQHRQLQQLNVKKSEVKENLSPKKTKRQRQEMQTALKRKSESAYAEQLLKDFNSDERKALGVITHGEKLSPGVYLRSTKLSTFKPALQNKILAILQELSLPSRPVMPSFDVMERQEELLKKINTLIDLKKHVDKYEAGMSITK
Description: (§1) Yeast strains were distributed in 96‐well microplates containing SC(MSG)‐U medium (SC‐U medium with 0.1% monosodium glutamate instead of ammonium sulfate as a nitrogen source) and grown at 30 °C. 40 µL of exponentially growing cells were transferred in white 96‐well half‐area microplates (ProxiPlate Plus, Greiner Bio‐One) previously filled with 40 µL per well of SC(MSG) containing 100 µM furimazine. The microplates were then incubated for 10 min in the dark before the luminescence signals were recorded using a microplate reader (Ensight, PerkinElmer). Luminescence measurements were performed for 1 s per well at a distance of 0.1 mm between the plate and the detector. The luminescence values were normalized with the optical density (OD600) of the corresponding cultures. For NanoBiT assays with BET inhibitors, yeast cultures were grown overnight at 30 °C in SC(MSG) medium in the presence of serial dilutions of 24c and I‐BET726. Overnight cultures were diluted 5 fold in SC(MSG) and incubated for 1 h before luminescence was recorded as previously indicated. Luminescence values for each condition were normalized using the average of the luminescence recorded for the Bdf1/Swc4 and Bmh1/Bmh2 controls.

Bmh1/Bmh2 = experiment: NanoBiT assay, control pair; type: cell-based, S. cerevisiae; parameters: Normalized nanoBiT signal: unit of the concentration uncertain
Description: as §1

[1] = read-out: HTRF signal, normalized (Figure 5A data)

CC(=O)N1c2ccc(-c3ccc(C(=O)O)cc3)cc2C(Nc2ccc(Cl)cc2)CC1C (centres unmarked) [I-BET726]
HTRF signal, normalized (Figure 5A data) (human Brd4 BD2; 0.0537 nM): 102.97 and 106.08 and 108.84 and 105.09 | HTRF signal, normalized (Figure 5A data) (human Brd4 BD2; 0.13 nM): 103.72 and 102.37 and 103.68 and 103.57 | HTRF signal, normalized (Figure 5A data) (human Brd4 BD2; 0.34 nM): 94.46 and 91.58 and 95.80 and 94.95 | HTRF signal, normalized (Figure 5A data) (human Brd4 BD2; 0.84 nM): 79.67 and 69.64 and 75.99 and 78.48 | HTRF signal, normalized (Figure 5A data) (human Brd4 BD2; 2.10 nM): 45.84 and 41.04 and 44.03 and 46.83 | HTRF signal, normalized (Figure 5A data) (human Brd4 BD2; 5.24 nM): 8.26 and 9.91 and 8.75 and 10.80 | HTRF signal, normalized (Figure 5A data) (human Brd4 BD2; 32.77 nM): 3.03 and 2.91 and 2.46 and 2.11 | HTRF signal, normalized (Figure 5A data) (human Brd4 BD2; 81.92 nM): 2.74 and 1.64 and 1.67 and 2.48 | HTRF signal, normalized (Figure 5A data) (human Brd4 BD2; 512 nM): 2.01 and 2.50 and 2.14 and 2.65 | remaining activity at 0.0021 µM (C. auris Bdf1 BD2; CauBD2, 2.10 nM, read-out: HTRF signal, normalized (Figure 5A data)): 97.4% | remaining activity at 0.01311 µM (C. auris Bdf1 BD2; CauBD2, 13.11 nM, read-out: HTRF signal, normalized (Figure 5A data)): 85.4% | remaining activity at 0.03277 µM (C. auris Bdf1 BD2; CauBD2, 32.77 nM, read-out: HTRF signal, normalized (Figure 5A data)): 75% | remaining activity at 0.08192 µM (C. auris Bdf1 BD2; CauBD2, 81.92 nM, read-out: HTRF signal, normalized (Figure 5A data)): 52.6% | remaining activity at 0.2048 µM (C. auris Bdf1 BD2; CauBD2, 204.8 nM, read-out: HTRF signal, normalized (Figure 5A data)): 31% | remaining activity at 0.512 µM (C. auris Bdf1 BD2; CauBD2, 512 nM, read-out: HTRF signal, normalized (Figure 5A data)): 12.9% | remaining activity at 3.2 µM (C. auris Bdf1 BD2; CauBD2, 3200 nM, read-out: HTRF signal, normalized (Figure 5A data)): 5.12% | remaining activity at 8 µM (C. auris Bdf1 BD2; CauBD2, 8000 nM, read-out: HTRF signal, normalized (Figure 5A data)): 5.06% | IC50 (C. auris Bdf1 BD2; Fig 5A, four replicates, read-out: IC50 (μM) BD2, C. aur. Bdf1): 0.23 ± 0.02 µM | remaining activity at 0.00524 µM (C. auris Bdf1 BD2; [1]): 90.6% | remaining activity at 8 µM (C. auris Bdf1 BD2; [1]): 2.46% | HTRF signal, normalized (Figure 5A data) (human Brd4 BD1; 0.0537 nM): 104.39 and 100.71 and 99.92 and 101.07 | HTRF signal, normalized (Figure 5A data) (human Brd4 BD1; 0.13 nM): 104.60 and 101.29 and 100.85 and 99.75 | HTRF signal, normalized (Figure 5A data) (human Brd4 BD1; 0.34 nM): 101.49 and 102.55 and 101.26 and 101.01 | HTRF signal, normalized (Figure 5A data) (human Brd4 BD1; 0.84 nM): 100.78 and 99.59 and 99.33 and 97.74 | HTRF signal, normalized (Figure 5A data) (human Brd4 BD1; 2.10 nM): 99.49 and 98.84 and 98.60 | HTRF signal, normalized (Figure 5A data) (human Brd4 BD1; 5.24 nM): 95.52 and 94.38 and 93.54 and 94.69 | HTRF signal, normalized (Figure 5A data) (human Brd4 BD1; 13.11 nM): 83.95 and 83.77 and 84.76 and 83.85 | HTRF signal, normalized (Figure 5A data) (human Brd4 BD1; 32.77 nM): 48.83 and 48.92 and 64.32 and 62.36 | HTRF signal, normalized (Figure 5A data) (human Brd4 BD1; 81.92 nM): 17.12 and 16.89 and 27.28 and 27.02 | HTRF signal, normalized (Figure 5A data) (human Brd4 BD1; 204.8 nM): 4.51 and 4.84 and 6.56 and 8.13 | HTRF signal, normalized (Figure 5A data) (human Brd4 BD1; 512 nM): 0.14 and 0.27 and 0.17 and 0.18 | remaining activity at 24.41 µM (Bdf1/Swc4; Bdf1-SmBiT, Swc4-LgBiT, 0.02441 mM, Fig 4C, read-out: Normalized nanoBiT signal): 95% | remaining activity at 97.66 µM (Bdf1/Swc4; Bdf1-SmBiT, Swc4-LgBiT, 0.09766 mM, Fig 4C, read-out: Normalized nanoBiT signal): 93% | remaining activity at 195.31 µM (Bdf1/Swc4; Bdf1-SmBiT, Swc4-LgBiT, 0.19531 mM, Fig 4C, read-out: Normalized nanoBiT signal): 95% | remaining activity at 390.63 µM (Bdf1/Swc4; Bdf1-SmBiT, Swc4-LgBiT, 0.39063 mM, Fig 4C, read-out: Normalized nanoBiT signal): 91% | remaining activity at 781.25 µM (Bdf1/Swc4; Bdf1-SmBiT, Swc4-LgBiT, 0.78125 mM, Fig 4C, read-out: Normalized nanoBiT signal): 90% | remaining activity (Bdf1/Swc4; Bdf1-SmBiT, Swc4-LgBiT, […], Fig 4C, read-out: Normalized nanoBiT signal): 99% | inhibition of NanoBiT signal, Bdf1/Swc4 (Bdf1/Swc4; control pair independent of Bdf1 BDs): not observed | remaining activity at 48.83 µM (Bdf1/Swc4; read-out: Normalized nanoBiT signal): 92% | Normalized nanoBiT signal (Bmh1/Bmh2): 108% and 107% and 96% and 97% | Normalized nanoBiT signal (Bmh1/Bmh2; Bmh1-LgBiT, Bmh2-SmBiT, 0.02441 (unit uncertain), Fig 4C): 104% and 103% and 105% and 97%
